Non-standard residues stand in square brackets, D forms with d. Residues, ends and D or L forms follow the SMILES beside them. hArg = N=C(N)NCCCC[C@H](N)C(=O)O; Cit = NC(=O)NCCC[C@H](N)C(=O)O; Orn = NCCC[C@H](N)C(=O)O; Dab = NCC[C@H](N)C(=O)O; Nva = CCC[C@H](N)C(=O)O; Dap = NC[C@H](N)C(=O)O
Key:
Neuropeptide S receptor = target: T1, Neuropeptide S receptor (Mus musculus, UniProt Q8BZP8); assay: Agonist activity at mouse NPSR expressed in HEK293 cells assessed as increase in intracellular calcium mobilization by FLIPR; assay type: functional, cell-based
T1 sequence (Q8BZP8 whole entry): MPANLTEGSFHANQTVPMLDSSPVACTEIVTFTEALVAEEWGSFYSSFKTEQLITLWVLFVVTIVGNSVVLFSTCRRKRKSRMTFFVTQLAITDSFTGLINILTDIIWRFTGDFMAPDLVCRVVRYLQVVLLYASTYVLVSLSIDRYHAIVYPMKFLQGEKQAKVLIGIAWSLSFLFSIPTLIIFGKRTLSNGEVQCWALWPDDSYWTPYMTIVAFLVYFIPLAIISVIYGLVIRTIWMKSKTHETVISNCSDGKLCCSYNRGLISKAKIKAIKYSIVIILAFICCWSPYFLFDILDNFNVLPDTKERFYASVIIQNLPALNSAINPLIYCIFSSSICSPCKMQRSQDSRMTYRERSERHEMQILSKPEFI

[1] = target: T2, Neuropeptide S receptor (Mus musculus) (UniProt Q8BZP8); assay: Agonist activity at mouse NPSR expressed in HEK293 cells assessed as increase in intracellular calcium mobilization by FLIPR relative to baseline; assay type: functional, cell-based
T2 sequence (whole entry): T1 sequence (Q8BZP8 whole entry)

Row | EC50 (Neuropeptide S receptor) [nM] | Emax [1] [%] | Compound
1 | 166 | 285 | CSCC[C@H](NC(=O)CNC(=O)[C@@H](NC(=O)CNC(=O)[C@@H](NC(=O)CNC(=O)[C@H](CC(N)=O)NC(=O)[C@H](CCCNC(N)=O)NC(=O)[C@H](Cc1ccccc1)NC(=O)[C@@H](N)CO)C(C)C)[C@@H](C)O)C(=O)N[C@@H](CCCCN)C(=O)N[C@@H](CCCCN)C(=O)N[C@H](C(=O)N[C@@H](CO)C(=O)N[C@@H](Cc1ccccc1)C(=O)N[C@@H](CCC(N)=O)C(=O)N[C@@H](CCCNC(=N)N)C(=O)N[C@@H](C)C(=O)N[C@@H](CCCCN)C(=O)N[C@@H](CO)C(=O)O)[C@@H](C)O (H-SF[Cit]NGVGTGMKKTSFQRAKS-OH)
2 | 135 | 207 | CCC[C@H](NC(=O)[C@H](Cc1ccccc1)NC(=O)[C@@H](N)CO)C(=O)N[C@@H](CC(N)=O)C(=O)NCC(=O)N[C@H](C(=O)NCC(=O)N[C@H](C(=O)NCC(=O)N[C@@H](CCSC)C(=O)N[C@@H](CCCCN)C(=O)N[C@@H](CCCCN)C(=O)N[C@H](C(=O)N[C@@H](CO)C(=O)N[C@@H](Cc1ccccc1)C(=O)N[C@@H](CCC(N)=O)C(=O)N[C@@H](CCCNC(=N)N)C(=O)N[C@@H](C)C(=O)N[C@@H](CCCCN)C(=O)N[C@@H](CO)C(=O)O)[C@@H](C)O)[C@@H](C)O)C(C)C (H-SF[Nva]NGVGTGMKKTSFQRAKS-OH)
3 | 1550 | 273 | H-SFHNGVGTGMKKTSFQRAKS-OH
4 | 18.2 | 290 | H-SFKNGVGTGMKKTSFQRAKS-OH
5 | 12 | 234 | H-SFRNGVGTGMKKTSFQRAKS-OH [NEUROPEPTIDE S]
6 | 562 | 210 | H-SFRQGVGTGMKKTSFQRAKS-OH
7 | 871 | 272 | H-SFTNGVGTGMKKTSFQRAKS-OH

Continued, compound first:

Row | Compound | EC50 (Neuropeptide S receptor) [nM] | Emax [1] [%]
8 | CSCC[C@H](NC(=O)CNC(=O)[C@@H](NC(=O)CNC(=O)[C@@H](NC(=O)CNC(=O)[C@H](CC(N)=O)NC(=O)[C@H](CCN)NC(=O)[C@H](Cc1ccccc1)NC(=O)[C@@H](N)CO)C(C)C)[C@@H](C)O)C(=O)N[C@@H](CCCCN)C(=O)N[C@@H](CCCCN)C(=O)N[C@H](C(=O)N[C@@H](CO)C(=O)N[C@@H](Cc1ccccc1)C(=O)N[C@@H](CCC(N)=O)C(=O)N[C@@H](CCCNC(=N)N)C(=O)N[C@@H](C)C(=O)N[C@@H](CCCCN)C(=O)N[C@@H](CO)C(=O)O)[C@@H](C)O (H-SF[Dab]NGVGTGMKKTSFQRAKS-OH) | 204 | 207
9 | CSCC[C@H](NC(=O)CNC(=O)[C@@H](NC(=O)CNC(=O)[C@@H](NC(=O)CNC(=O)[C@H](CC(N)=O)NC(=O)[C@H](CN)NC(=O)[C@H](Cc1ccccc1)NC(=O)[C@@H](N)CO)C(C)C)[C@@H](C)O)C(=O)N[C@@H](CCCCN)C(=O)N[C@@H](CCCCN)C(=O)N[C@H](C(=O)N[C@@H](CO)C(=O)N[C@@H](Cc1ccccc1)C(=O)N[C@@H](CCC(N)=O)C(=O)N[C@@H](CCCNC(=N)N)C(=O)N[C@@H](C)C(=O)N[C@@H](CCCCN)C(=O)N[C@@H](CO)C(=O)O)[C@@H](C)O (H-SF[Dap]NGVGTGMKKTSFQRAKS-OH) | 240 | 196
10 | CSCC[C@H](NC(=O)CNC(=O)[C@@H](NC(=O)CNC(=O)[C@@H](NC(=O)CNC(=O)[C@H](CC(N)=O)NC(=O)[C@H](CCCN)NC(=O)[C@H](Cc1ccccc1)NC(=O)[C@@H](N)CO)C(C)C)[C@@H](C)O)C(=O)N[C@@H](CCCCN)C(=O)N[C@@H](CCCCN)C(=O)N[C@H](C(=O)N[C@@H](CO)C(=O)N[C@@H](Cc1ccccc1)C(=O)N[C@@H](CCC(N)=O)C(=O)N[C@@H](CCCNC(=N)N)C(=O)N[C@@H](C)C(=O)N[C@@H](CCCCN)C(=O)N[C@@H](CO)C(=O)O)[C@@H](C)O (H-SF[Orn]NGVGTGMKKTSFQRAKS-OH) | 31.6 | 318
11 | CSCC[C@H](NC(=O)CNC(=O)[C@@H](NC(=O)CNC(=O)[C@@H](NC(=O)CNC(=O)[C@H](CC(N)=O)NC(=O)[C@H](CCCCNC(=N)N)NC(=O)[C@H](Cc1ccccc1)NC(=O)[C@@H](N)CO)C(C)C)[C@@H](C)O)C(=O)N[C@@H](CCCCN)C(=O)N[C@@H](CCCCN)C(=O)N[C@H](C(=O)N[C@@H](CO)C(=O)N[C@@H](Cc1ccccc1)C(=O)N[C@@H](CCC(N)=O)C(=O)N[C@@H](CCCNC(=N)N)C(=O)N[C@@H](C)C(=O)N[C@@H](CCCCN)C(=O)N[C@@H](CO)C(=O)O)[C@@H](C)O (H-SF[hArg]NGVGTGMKKTSFQRAKS-OH) | 10.7 | 288
12 | H-SFCNGVGTGMKKTSFQRAKS-OH | 372 | 256
13 | H-SFGNGVGTGMKKTSFQRAKS-OH | 1260 | 264
14 | H-SFQNGVGTGMKKTSFQRAKS-OH | 129 | 295
15 | H-SFRTGVGTGMKKTSFQRAKS-OH | 102 | 253

From ChEMBL document CHEMBL1152211, “Structure-activity study at positions 3 and 4 of human neuropeptide S” (Bioorg Med Chem, 2008)
